Measured values from patent publication US20110184018A1, “METHOD FOR TREATING PERIPHERAL NEUROPATHIC PAIN” (LOHOCLA RESEARCH CORPORATION, priority 2005, published 2011).
Read-outs that look alike come from different tables or passages of the source.

Experiments:
[1] = molecular target: voltage sensitive sodium channel (neurotoxin receptor Site 2); test: [3H]BTX binding assay; settings: rat cortical synaptosomes
[2] = Solubility limit in aqueous assay buffers; type: physicochemical; settings: aqueous assay buffers (incubation or bath solutions), aqueous buffer, kinetic from dmso stock, DMSO 0.2 to 1%, read-out: concentrations that could not be tested due to limited solubility in aqueous buffers
Protocol: Drugs. For all in vitro assays, stock solutions of DCUKA or DCUK-OMe were prepared fresh daily in dimethylsulfoxide (DMSO) then diluted into the incubation or bath solutions with sonication to the desired concentrations for experiments. Due to their limited solubility in aqueous buffers, DCUKA concentrations >300 μM and DCUK-OMe concentrations >100 μM could not be tested. In those assays where high ionic strength buffers were used, i.e., [^3H]batrachiotoxin (BTX) binding in depolarized synaptosomes, concentrations >50 μM could not be tested. The final concentration of DMSO in the assays ranged from 0.2 to 1%. In all assays, drug effects were compared with effects measured in the presence of the identical concentration of DMSO without drug.

[3] = system: rats following spinal nerve ligation (SNL); test: Thermal and tactile hyperalgesia after spinal nerve ligation (SNL); type: in vivo, rat
Protocol: FIG. 7 illustrates the scheme for testing the DCUK ethyl ester in neuropathic pain models. In FIG. 7 graphs showing attenuation of tactile (Panel A) and thermal (Panel B) hyperalgesia in animals following spinal nerve ligation (SNL) are provided. DCUK-OEt (30 or 100 mg/kg) was administered at the time indicated by the arrow. Hyperalgesic responses were followed for the next 180 minutes. The shaded area represents the area of hyperalgesia produced by SNL. BL on the X-axis represents the baseline response of animals prior to spinal nerve ligation. SNL represents the response of the animals after spinal nerve ligation and prior to receiving the DCUKA ethyl ester.
Spinal Nerve Ligation and Sham Surgery. Anesthesia was maintained with 0.5% halothane in oxygen. After surgical preparation of the rats, a 2-cm paraspinal incision was made at the level L4-S2. The unilateral L5 and L6 spinal nerves were exposed and tightly ligated distal to the dorsal root ganglia by using 4-0 silk suture. The incisions were closed, and animals were allowed to recover. Sham-operated control rats were prepared in an identical manner without L5/L6 nerve ligation. […] Separate groups of animals were used in tests for thermal and tactile hypersensitivity.
Tactile Hypersensitivity Test and Evaluation. Animals were placed in a suspended plastic chamber with a wire mesh platform and allowed to habituate for 15 minutes. Tactile hypersensitivity was determined by measuring paw withdrawal threshold in response to probing the plantar surface of the left hind paw with a series of 8 calibrated von Frey filaments (0.40, 0.70, 1.20, 2.00, 3.63, 5.50, 8.50, and 15.1 g). Measurements were taken before surgery and before and after administration of drug or vehicle. Withdrawal threshold was determined by sequentially increasing and decreasing stimulus intensity (“up and down” method), analyzed by using a Dixon nonparametric test, and expressed as the paw withdrawal threshold in gram force values. All studies were carried out 7 days after spinal nerve ligation (SNL).
Thermal Hypersensitivity Test (Radiant Heat Paw Withdrawal Test). Rats were placed in clear plastic chambers on a glass surface and were habituated for 15 minutes before testing. Thermal sensitivity was measured by using paw withdrawal latency to a radiant heat stimulus. A radiant heat source (i.e., infrared) was activated with a timer and focused onto the plantar surface of the left hind paw of a rat, and the latency to paw withdrawal was measured. A motion detector that halted both lamp and timer when the paw was withdrawn determined paw withdrawal latency. The latencies were measured before surgery and before and after drug or vehicle administration. A maximum cutoff of 33 seconds was used to prevent tissue damage. […]

| Compound | IC50 ([1]; depolarizing conditions (135 mM KCl), read-out: IC50 [3H]BTX binding under depolarizing conditions (value in parentheses)) [µM] | IC50 ([1]; none = no displacement at 100 μM, read-out: IC50 [3H]BTX binding) [µM] | solubility [2] [µM] | normalization of thermal versus tactile hyperalgesia ([3]; 30 or 100 mg/kg) | inhibition of thermal hyperalgesia ([3]; i.p., 100 mg/kg) [%] | reduction of thermal hyperalgesia ([3]; oral, 200 mg/kg emulsion) | inhibition of thermal hyperalgesia ([3]; p.o., about 150 mg/kg) [%] |
| --- | --- | --- | --- | --- | --- | --- | --- |
| O=C(O)c1cc(NC(=O)N(c2ccccc2)c2ccccc2)c2c(Cl)cc(Cl)cc2n1 [DCUKA, N,N-diphenyl-4-ureido-5,7-dichloro-2-carboxyquinoline] | 30 | 76 | > 300 |  |  |  |  |
| CCOC(=O)c1cc(NC(=O)N(c2ccccc2)c2ccccc2)c2c(Cl)cc(Cl)cc2n1 [DCUK-OEt, N,N-diphenyl-4-ureido-5,7-dichloro-2-carboxy quinoline ethyl ester] |  |  |  | thermal hyperalgesia is normalized by administration of DCUKA ethyl ester to a greater extent than tactile hyperalgesia | 75 | about 70% | 45 |
